Measurements taken from patent EP1027361B1, “6,11-BRIDGED ERYTHROMYCIN DERIVATIVES” (Abbott Laboratories, priority 1997, dated 1999).

Columns and labels:
Assay in all cases: in vitro antibacterial activity, agar dilution MIC
Format in all cases: cell-based
[1] = tested on: Escherichia coli SS; settings: organism code RR, BHI agar, 35-37 °C, 20 to 24 hours
Experimental: (§1) Erythromycin A was used for this purpose.
(§2) After incubation, each plate was visually inspected.

[2] = tested on: Staphylococcus epidermidis 3519; settings: organism code HH, BHI agar, 35-37 °C, 20 to 24 hours
Experimental: as §1, §2

[3] = tested on: Escherichia coli JUHL; settings: organism code QQ, BHI agar, 35-37 °C, 20 to 24 hours
Experimental: as §1, §2

[4] = tested on: Micrococcus luteus ATCC 4698; settings: organism code PP, BHI agar, 35-37 °C, 20 to 24 hours
Experimental: as §1, §2

[5] = tested on: Nocardia Asteroides ATCC9970; settings: organism code VV, BHI agar, 35-37 °C, 20 to 24 hours
Experimental: as §1, §2

[6] = tested on: Enterococcus faecium ATCC 8043; settings: organism code II, BHI agar, 35-37 °C, 20 to 24 hours
Experimental: as §1, §2

[7] = tested on: Haemophilis Influenzae DILL AMP R; settings: organism code WW, BHI agar, 35-37 °C, 20 to 24 hours
Experimental: as §1, §2

[8] = tested on: Staphylococcus aureus NCTC10649M; settings: organism code EE, BHI agar, 35-37 °C, 20 to 24 hours
Experimental: as §1, §2

[9] = tested on: Streptococcus Pheumoniae GYR 1171; settings: organism code YY, BHI agar, 35-37 °C, 20 to 24 hours
Experimental: as §1, §2

[10] = tested on: Micrococcus luteus ATCC 9341; settings: organism code OO, BHI agar, 35-37 °C, 20 to 24 hours
Experimental: as §1, §2

[11] = tested on: Streptococcus Pheumoniae 5649; settings: organism code ZZA, BHI agar, 35-37 °C, 20 to 24 hours
Experimental: as §1, §2

[12] = tested on: Staphylococcus aureus CMX 553; settings: organism code FF, BHI agar, 35-37 °C, 20 to 24 hours
Experimental: as §1, §2

[13] = tested on: Staphylococcus aureus CMX 642A; settings: organism code DD, BHI agar, 35-37 °C, 20 to 24 hours
Experimental: as §1, §2

[14] = tested on: Candida albicans CCH 442; settings: organism code TT, BHI agar, 35-37 °C, 20 to 24 hours
Experimental: (§3) Representative compounds of the present invention were assayed in vitro for antibacterial activity as follows: Twelve petri dishes containing successive aqueous dilutions of the test compound mixed with 10 mL of sterilized Brain Heart Infusion (BHI) agar (Difco 0418-01-5) were prepared. Each plate was inoculated with 1:100 (or 1:10 for slow-growing strains, such as Micrococcus and Streptococcus) dilutions of up to 32 different microorganisms, using a Steers replicator block. […] In addition, a control plate, using BHI agar containing no test compound, was prepared and incubated at the beginning and end of each test
(§4) An additional plate containing a compound having known susceptibility patterns for the organisms being tested and belonging to the same antibiotic class as the test compound was also prepared and incubated as a further control, as well as to provide test-to-test comparability.
(§5) After incubation, each plate was visually inspected. The minimum inhibitory concentration (MIC) was defined as the lowest concentration of drug yielding no growth, a slight haze, or sparsely isolated colonies on the inoculum spot as compared to the growth control.

[15] = tested on: Escherichia coli DC-2; settings: organism code SS, BHI agar, 35-37 °C, 20 to 24 hours
Experimental: as §3, §4, §5

[16] = tested on: Streptococcus pyogenes 930; settings: organism code MM, BHI agar, 35-37 °C, 20 to 24 hours
Experimental: as §3, §4, §5

[17] = tested on: Staphylococcus aureus A-5278; settings: organism code CC, BHI agar, 35-37 °C, 20 to 24 hours
Experimental: as §3, §4, §5

[18] = tested on: Staphylococcus aureus 1775; settings: organism code GG, BHI agar, 35-37 °C, 20 to 24 hours
Experimental: as §3, §4, §5

[19] = tested on: Streptococcus pyogenes PIU 2548; settings: organism code NN, BHI agar, 35-37 °C, 20 to 24 hours
Experimental: as §3, §4, §5

[20] = tested on: Staphylococcus aureus ATCC 6538P; set-up: unit not given here; settings: organism code AA, BHI agar, 35-37 °C, 20 to 24 hours
Experimental: as §1, §2

[21] = tested on: Streptococcus agalactiae CMX 508; set-up: unit not given here; settings: organism code KK, BHI agar, 35-37 °C, 20 to 24 hours
Experimental: as §1, §2

[22] = tested on: Streptococcus pyogenes EES61; set-up: unit not given here; settings: organism code LL, BHI agar, 35-37 °C, 20 to 24 hours
Experimental: as §1, §2

[23] = tested on: Streptococcus Pheumoniae ATCC6303; set-up: unit not given here; settings: organism code XX, BHI agar, 35-37 °C, 20 to 24 hours
Experimental: as §1, §2

[24] = tested on: Streptococcus bovis A-5169; set-up: unit not given here; settings: organism code JJ, BHI agar, 35-37 °C, 20 to 24 hours
Experimental: as §1, §2

[25] = tested on: Staphylococcus aureus A5177; set-up: unit not given here; settings: organism code BB, BHI agar, 35-37 °C, 20 to 24 hours
Experimental: as §3, §4, §5

[26] = tested on: Mycobacterium smegmatis ATCC 114; set-up: unit not given here; settings: organism code UU, BHI agar, 35-37 °C, 20 to 24 hours
Experimental: as §3, §4, §5

[27] = tested on: Streptococcus Pheumoniae 5979; settings: organism code ZZ, BHI agar, 35-37 °C, 20 to 24 hours
Experimental: as §3, §4, §5

Row | SMILES | minimum inhibitory concentration (MIC) [1] | minimum inhibitory concentration (MIC) [2] | minimum inhibitory concentration (MIC) [3] | minimum inhibitory concentration (MIC) [4] | minimum inhibitory concentration (MIC) [5] | minimum inhibitory concentration (MIC) [6] | minimum inhibitory concentration (MIC) [7] | minimum inhibitory concentration (MIC) [9] | minimum inhibitory concentration (MIC) [10] | minimum inhibitory concentration (MIC) [11] | minimum inhibitory concentration (MIC) [12] | minimum inhibitory concentration (MIC) [13] | minimum inhibitory concentration (MIC) [14] | minimum inhibitory concentration (MIC) [15] | minimum inhibitory concentration (MIC) [16] | minimum inhibitory concentration (MIC) [17] | minimum inhibitory concentration (MIC) [18] | minimum inhibitory concentration (MIC) [19] | minimum inhibitory concentration (MIC) [20] | minimum inhibitory concentration (MIC) [21] | further results
1 | CC[C@H]1OC(=O)[C@H](C)[C@@H](O[C@H]2C[C@@](C)(OC)[C@@H](O)[C@H](C)O2)[C@H](C)[C@@H](O[C@@H]2O[C@H](C)C[C@H](N(C)C)[C@H]2O)[C@](C)(O)C[C@@H](C)C(=O)[C@H](C)[C@@H](O)[C@]1(C)O [Ery. A, Erythromycin A, reference compound] | 0.78 | 0.39 | >100 | 0.2 | 0.1 | 0.05 | 4 | 0.06 | 0.05 | 16 | 0.39 | 0.39 | >100 | >100 | >100 | >100 | >100 | 6.2 | 0.2 | 0.05 | minimum inhibitory concentration (MIC) [8]: 0.39; minimum inhibitory concentration (MIC) [22]: 0.05; minimum inhibitory concentration (MIC) [23]: 0.06; minimum inhibitory concentration (MIC) [24]: 0.02; minimum inhibitory concentration (MIC) [25]: 3.1; minimum inhibitory concentration (MIC) [26]: 3.1
2 | CC[C@H]1OC(=O)[C@H](C)[C@@H](O[C@H]2C[C@@](C)(OC)[C@@H](O)[C@H](C)O2)[C@H](C)[C@@H](O[C@@H]2O[C@H](C)C[C@H](N(C)C)[C@H]2O)[C@@]2(C)C[C@@H](C)C(=O)[C@H](C)[C@H]3N(CCNC(=O)c4ccccc4C=CCO2)C(=O)O[C@]13C [Example 4, Compound of Formula (I), 2'-R^p is H, 4"-R^p is H, m is 2, A is NH, B is -C(O)-(CH2)q-, q is 0, D is 1,2-phenylene, E is-(CH2)r-CH=CH-, r is 0, n is 1] | 6.2 | 1.56 | 100 | 1.56 | 0.2 | 0.39 | 16 | 0.03 | 0.2 | 16 | 1.56 | 1.56 | >100 | >100 | >100 | >100 | >100 | 12.5 | 1.56 | 0.2 | minimum inhibitory concentration (MIC) [27]: >128; minimum inhibitory concentration (MIC) [22]: 0.39; minimum inhibitory concentration (MIC) [23]: 0.03; minimum inhibitory concentration (MIC) [24]: 0.2; minimum inhibitory concentration (MIC) [25]: 25; minimum inhibitory concentration (MIC) [26]: 3.1
3 | CC[C@H]1OC(=O)[C@H](C)[C@@H](O[C@H]2C[C@@](C)(OC)[C@@H](O)[C@H](C)O2)[C@H](C)[C@@H](O[C@@H]2O[C@H](C)C[C@H](N(C)C)[C@H]2O)[C@@]2(C)C[C@@H](C)C(=O)[C@H](C)[C@H]3N(CCNC(=O)Cc4ccccc4C=CCO2)C(=O)O[C@]13C [Example 6, Compound of Formula (I), 2'-R^p is H, 4"-R^p is H, m is 2, A is NH, B is -C(O)-(CH2)q-, q is 1, D is 1,2-phenylene, E is-(CH2)r-CH=CH-, r is 0, n is 1] | 3.1 | 0.78 | 100 | 0.78 | 0.39 | 0.39 | 8 | 0.03 | 0.1 | 16 | 0.78 | 1.56 | >100 | >100 | >100 | >100 | >100 | 12.5 | 0.78 | 0.1 | minimum inhibitory concentration (MIC) [8]: 1.56; minimum inhibitory concentration (MIC) [27]: >128; minimum inhibitory concentration (MIC) [22]: 0.2; minimum inhibitory concentration (MIC) [23]: 0.03; minimum inhibitory concentration (MIC) [24]: 0.1; minimum inhibitory concentration (MIC) [25]: 12.5; minimum inhibitory concentration (MIC) [26]: 0.39
4 | CC[C@H]1OC(=O)[C@H](C)[C@@H](O[C@H]2C[C@@](C)(OC)[C@@H](O)[C@H](C)O2)[C@H](C)[C@@H](O[C@@H]2O[C@H](C)C[C@H](N(C)C)[C@H]2O)[C@@]2(C)C[C@@H](C)C(=O)[C@H](C)[C@H]3N(CCNCc4cccc(c4)C=CCO2)C(=O)O[C@]13C [Example 11, Compound of Formula (I), 2'-R^p is H, 4"-R^p is H, m is 2, A is NH, B is-(CH2)q-, q is 1, D is 1,3-phenylene, E is-(CH2)r-CH=CH-, r is 0, n is 1] | 6.2 | 3.1 | >100 | 3.1 | 0.2 | 0.2 | 32 | 0.25 | 0.2 | 32 | 3.1 | 3.1 | >100 | >100 | >100 | >100 | >100 | 12.5 | 3.1 | 0.1 | minimum inhibitory concentration (MIC) [27]: >128; minimum inhibitory concentration (MIC) [22]: 0.2; minimum inhibitory concentration (MIC) [23]: 0.12; minimum inhibitory concentration (MIC) [24]: 0.1; minimum inhibitory concentration (MIC) [25]: 50; minimum inhibitory concentration (MIC) [26]: 0.2
